Assay [1] has as its system C57BL/6 male mice. Briefly: C57BL/6 hair growth after single topical dose. It counts as in vivo, mouse. As to conditions: shaved lower back, dosed topically once, visually graded for melanogenesis and hair regrowth. As for the experimental part:
(§1) A mouse model of male pattern baldness is used to investigate the effectiveness of the present compounds for growing hair. Agonists for the sonic hedgehog pathway that act by binding and activating Smoothened were tested in a formulation of 50:30:20 PG:EtOH:water or 5:95 DMSO:acetone vehicle. C57BL/6 male mice (48-52 days old on arrival) from Charles River Labs were used on the study. The mice were housed and cared for according to established procedures. Food and water were ad libitum. On Day 0, the mice were shaved on their lower back, an area of ˜1.5 inches×˜2 inches with Wahl clippers using a surgical blade. On day −3, the mice were anesthetized with isoflurane, their back was rinsed with a pad of 70% ethanol, a placebo pellet or a DHT pellet (2.5 mg 21 day pellet) were implanted subcutaneously between the shoulder blades with a 10 gauge trochar. DHT pellet transplantation results in maintenance of existing hair follicles in the resting (telogen) phase. The hole was stapled with a sterile autoclip and the mice were returned to their cage after awaking. The mice were dosed topically once and visually graded daily, except weekends, for melanogenesis and hair regrowth of fur in the dosed area (Table 4).

Assay [2] deals with C57BL/6 male mice with DHT pellet. Briefly: DHT-induced alopecia mouse model of male pattern baldness. It counts as in vivo. To be noted: C57BL/6 male mice with subcutaneous DHT pellet (2.5 mg 21 day), dosed topically once, visually graded for hair regrowth. As for the experimental part: as §1
In the absence of treatment with the present compounds, the follicles remain in telogen rather than following the normal time course of the mouse hair cycle.

For assay [3], the system named is sonic hedgehog pathway, TM3 mouse Leydig cells. Briefly: Hedgehog pathway Gli-luciferase reporter assay in TM3 cells. The format is cell-based. The text has this:
(§2) Mouse (TM3: mouse Leydig cells; S12: mouse embryonic mesenchymal cells) and human (Daoy: human medulloblastoma cell; HepM: human embryonic palatal mesenchymal cell) cell lines are used to screen small molecules for their ability to modulate the activity of the sonic hedgehog pathway (Table 1, Table 2, and Table 3). Stable hedgehog pathway reporter cell lines are established by specific antibiotic selection following transfection of a reporter plasmid containing a luciferase gene located directly downstream from the gli promoter. Consequently, any observable changes in cellular luciferase activity may be attributed to changes in sonic hedgehog pathway activity in mouse and human cells, respectively, since gli is the major by-product of this pathway. To calculate activity, we generate an eleven point dose curve for each compound using 1:3 dilutions in 96 well assay plates. Each plate tested also contains low and high control to establish maximal pathway activation so to establish/compare a percentage activation of each tested compound (AMAX) on respective plates. Also we calculate EC50 values, or a concentration where the pathway will be exactly 50% activated, for each tested compound to determine potency. In these cell lines, compounds that register >20% AMAX values are considered active.
(§3) Stable hedgehog pathway reporter cell lines are established following specific antibiotic selection following transfection of a reporter plasmid In short, typically cells are plated in MicroTiter-plates at 10,000-20,000 cells per well, in growth media (containing 10%-20% FBS). After 48-72 hrs (HGL and DGL respectively) the media in the assay plates is switched to low-serum containing media (0.5% FBS). At that time compounds are added (at 1-5 μM) to the assay plates, in the presence or absence of hedgehog protein (octyl-modified version; 1-5 ng/ml). After another 24 hrs of incubation, the media from the assay plates is discarded and replaced with luciferase assay-mix. Subsequently, plates are incubated at RT for ˜15-30 mins and then read in a luminometer. [note: addition of the Hedgehog protein, although not critical, will sensitize the assay allowing the identification of weak actives].
On the technique in general: A reporter such as luciferase makes a cellular process visible.

Assay [4] relates to sonic hedgehog pathway, HepM human embryonic palatal mesenchymal cells. Briefly: Human hedgehog reporter assay HEPM-GliLuc (HGL). The format is cell-based. As to conditions: gli-luciferase reporter.
Text: as §2, §3

Assay [5] concerns sonic hedgehog pathway, Daoy human medulloblastoma cells. Briefly: Human hedgehog reporter assay Daoy-GliLuc (DGL). The format is cell-based. As to conditions: gli-luciferase reporter, read-out: Daoy Avg. EC50.
Text: as §2, §3

The mark [6] stands for this setting: HepM human embryonic palatal mesenchymal cells, Table 1.
[7] abbreviates: Daoy human medulloblastoma cells, Table 1.

The values that follow come from patent US20080194637A1, “Small organic molecule regulators of cell proliferation” (Curis, Inc., priority 2006, published 2008).

Where a name gives a salt, the structure may show the parent alone. Read-outs that look alike come from different tables or passages of the source.

As usually defined, the EC50 is the concentration giving half of the maximal effect.

As for `CN[C@H]1CC[C@H](N(Cc2cc(-c3ccnc(C(=O)O)c3)ccc2OC)C(=O)c2sc3c(F)ccc(F)c3c2Cl)CC1`, in assay [1], the “C57BL/6 Hair Growth” value is on record as “no”.
Turning to `CN[C@H]1CC[C@H](N(Cc2cc(-c3ccc(S(C)(=O)=O)cc3)ccc2OC)C(=O)c2sc3ccccc3c2Cl)CC1`, the “C57BL/6 Hair Growth” value in assay [1] was “yes”. Further, in assay [2], the “Androgenetic Alopecia” value was “yes”.
As for `CN[C@H]1CC[C@H](N(Cc2cc(-c3ccc(NS(C)(=O)=O)nc3)ccc2OC)C(=O)c2sc3c(F)ccc(F)c3c2Cl)CC1`, the “C57BL/6 Hair Growth” value in assay [1] is given as “yes”.
For the compound `CN[C@H]1CC[C@H](N(Cc2cc(-c3cc(C)nc(C)c3)ccc2OC)C(=O)c2sc3ccccc3c2Cl)CC1`, the “C57BL/6 Hair Growth” value in assay [1] was “yes”. Besides, the “Androgenetic Alopecia” value in assay [2] is “yes”.
As to `CN[C@H]1CC[C@H](N(Cc2cc(-c3ccc(N)nc3C)ccc2OC)C(=O)c2sc3ccccc3c2Cl)CC1` [Compound 398, 3-Chloro-benzo[b]thiophene-2-carboxylic acid [5-(6-amino-2-methyl-pyridin-3-yl)-2-methoxy-benzyl]-(4-methylamino-cyclohexyl)-amide dihydrochloride], the EC50 in assay [3] (Table 3) fell in the range of 1000 to 2500 nM; in assay [4] (HepM human cells, Table 3), 1000 to 2500 nM; in assay [5] (Daoy human cells, Table 3), 250 to 1000 nM.
Regarding `CN[C@H]1CC[C@@H](N(Cc2cc(-c3cccc(C#N)c3)ccc2OC)C(=O)c2sc3ccccc3c2Cl)CC1` [Compound 304, 3-Chloro-benzo[b]thiophene-2-carboxylic acid (3′-cyano-4-methoxy-biphenyl-3-ylmethyl)-(4-methylamino-cyclohexyl)-amide hydrochloride], the EC50 in assay [3] (Table 1), in assay [4] (setting [6]) and in assay [5] (setting [7]) was below 50 nM throughout.
Turning to `CN[C@H]1CC[C@H](N(Cc2cc(-c3ccc(N)nc3)ccc2OC)C(=O)c2sc3cccc(F)c3c2Cl)CC1`, the “C57BL/6 Hair Growth” value in assay [1] is given as “yes”. In addition, the “Androgenetic Alopecia” value in assay [2] is reported as “yes”.
In the case of `CCOc1ccc(-c2ccc(C#N)cc2)cc1CN(C(=O)c1sc2ccccc2c1Cl)[C@H]1CC[C@H](NC)CC1`, the “C57BL/6 Hair Growth” value in assay [1] was “yes”.
Take `CN[C@H]1CC[C@H](N(Cc2cc(-c3ccccc3)ccc2OC)C(=O)c2sc3ccccc3c2Cl)CC1`: the “C57BL/6 Hair Growth” value in assay [1] is on record as “yes”. In assay [2], the “Androgenetic Alopecia” value is recorded as “yes”.
Take `CN[C@H]1CC[C@H](N(Cc2cc(-c3ccc(C(N)=O)cc3)ccc2OC)C(=O)c2sc3c(F)ccc(F)c3c2Cl)CC1`: the “C57BL/6 Hair Growth” value in assay [1] is “yes”. For the same compound, in assay [2], the “Androgenetic Alopecia” value was “yes”.
Turning to `CCOc1ccc(-c2cncnc2)cc1CN(C(=O)c1sc2ccccc2c1Cl)[C@H]1CC[C@@H](NC)CC1` [Compound 326, 3-Chloro-benzo[b]thiophene-2-carboxylic acid (2-ethoxy-5-pyrimidin-5-yl-benzyl)-(4-methylamino-cyclohexyl)-amide dihydrochloride], the EC50 in assay [3] (Table 1) is 50 to 250 nM; in assay [4] (setting [6]), 50 to 250 nM; in assay [5] (setting [7]), below 50 nM.
For `CCOc1ccc(-c2ccc(C)nc2)cc1CN(C(=O)c1sc2ccccc2c1Cl)[C@H]1CC[C@H](NC)CC1`, the “C57BL/6 Hair Growth” value in assay [1] is reported as “yes”.
Take `CNC(=O)c1cc(-c2ccc(OC)c(CN(C(=O)c3sc4c(F)ccc(F)c4c3Cl)[C@H]3CC[C@H](NC)CC3)c2)ccn1` [356 (R21), 4-(3-{([(3-Chloro-4,7-difluoro-benzo[b]thiophene-2-carbonyl)-(4-methylamino-cyclohexyl)-amino]-methyl}-4-methoxy-phenyl)-pyridine-2-carboxylic acid methylamidedihydrochloride]: the EC50 in assay [3] (Table 1), in assay [4] (setting [6]) and in assay [5] (setting [7]) was below 50 nM each time.
In the case of `CN[C@H]1CC[C@@H](N(Cc2cc(-c3ccnc(C(=O)O)c3)ccc2OC)C(=O)c2sc3c(F)ccc(F)c3c2Cl)CC1` [Compound R6, 4-(3-{[(3-Chloro-4,7-difluoro-benzo[b]thiophene-2-carbonyl)-(4-methylamino-cyclohexyl)-amino]-methyl}-4-methoxy-phenyl)-pyridine-2-carboxylic acid bis(trifluoroacetate)], the EC50 in assay [3] (Table 1) and in assay [4] (setting [6]) was 50 to 250 nM in each case.
Consider `CN[C@H]1CC[C@@H](N(Cc2cc(-c3ccc(S(C)(=O)=O)cc3)ccc2OC)C(=O)c2sc3ccccc3c2Cl)CC1` [Compound R7, 3-Chloro-benzo[b]thiophene-2-carboxylic acid (4′-methanesulfonyl-4-methoxy-biphenyl-3-ylmethyl)-(4-methylamino-cyclohexyl)-amide hydrochloride], for which the EC50 in assay [3] (Table 1) and in assay [4] (setting [6]) was below 50 nM in each case.
In the case of `CN[C@H]1CC[C@H](N(Cc2cc(-c3ccnc(C(=O)N(C)C)c3)ccc2OC)C(=O)c2sc3c(F)ccc(F)c3c2Cl)CC1`, in assay [1], the “C57BL/6 Hair Growth” value was “yes”. Moreover, the “Androgenetic Alopecia” value in assay [2] is listed as “yes”.
Consider `CN[C@H]1CC[C@@H](N(Cc2cc(-c3cccc(C(C)=O)c3)ccc2OC)C(=O)c2sc3c(F)ccc(F)c3c2Cl)CC1` [Compound 364, 3-Chloro-4,7-difluoro-benzo[b]thiophene-2-carboxylic acid (3′-acetyl-4-methoxy-biphenyl-3-ylmethyl)-(4-methylamino-cyclohexyl)-amide hydrochloride], for which the concentration for a half-maximal effect (EC50) in assay [3] (Table 1) and in assay [4] (setting [6]) was below 50 nM in each case.
With `CN[C@H]1CC[C@@H](N(Cc2cc(-c3cccc(C#N)c3)ccc2OC)C(=O)c2sc3c(F)ccc(F)c3c2Cl)CC1` [Compound 337, 3-Chloro-4,7-difluoro-benzo[b]thiophene-2-carboxylic acid (3′-cyano-4-methoxy-biphenyl-3-ylmethyl)-(4-methylamino-cyclohexyl)-amide hydrochloride], the EC50 in assay [3] (Table 1) and in assay [4] (setting [6]) was below 50 nM in each case.
Consider `CN[C@H]1CC[C@H](N(Cc2cc(-c3ccnc(C(=O)OC)c3)ccc2OC)C(=O)c2sc3c(F)ccc(F)c3c2Cl)CC1`, for which the “C57BL/6 Hair Growth” value in assay [1] is “yes”. The “Androgenetic Alopecia” value in assay [2] was “yes”.
In the case of `CN[C@H]1CC[C@@H](N(Cc2cc(-c3ccc(CCl)cc3)ccc2OC)C(=O)c2sc3ccccc3c2Cl)CC1` [Compound 340, 3-Chloro-benzo[b]thiophene-2-carboxylic acid (4′-chloromethyl-4-methoxy-biphenyl-3-ylmethyl)-(4-methylamino-cyclohexyl)-amide hydrochloride], the EC50 in assay [3] (Table 1), in assay [4] (setting [6]) and in assay [5] (setting [7]) was below 50 nM each time.
Regarding `CN[C@H]1CC[C@H](N(Cc2cc(-c3ccnc(C)c3)ccc2OC)C(=O)c2sc3ccccc3c2Cl)CC1`, the “C57BL/6 Hair Growth” value in assay [1] is given as “yes”. Besides, the “Androgenetic Alopecia” value in assay [2] is “yes”.
Turning to `CNC1CCC(N(Cc2cc(-c3ccncc3)ccc2OC)C(=O)c2sc3ccccc3c2Cl)CC1` (centres unmarked), the “C57BL/6 Hair Growth” value in assay [1] is “yes”. The “Androgenetic Alopecia” value in assay [2] was “yes”.
As for `CN[C@H]1CC[C@@H](N(Cc2cc(-c3ccc(C#N)cc3)ccc2OC)C(=O)c2sc3c(F)ccc(F)c3c2Cl)CC1` [Compound 351, 3-Chloro-4,7-difluoro-benzo[b]thiophene-2-carboxylic acid (4′-cyano-4-methoxy-biphenyl-3-ylmethyl)-(4-methylamino-cyclohexyl)-amide hydrochloride], the EC50 in assay [3] (Table 1) and in assay [4] (setting [6]) was below 50 nM throughout.
